For assay [1], the system named is RAW264.7. Put plainly: Antiinflammatory activity in mouse RAW264.7 assessed as inhibition of LPS-induced NO production preincubated for 30 mins followed by LPS stimulation measured after 24 hrs by Griess reagent based assay. It is filed as functional, cell-based. In general terms: The Griess reaction detects nitrite, a stable product of nitric oxide.
Assay [2] concerns RAW264.7. The experiment in a line: Inhibition of MAPK in mouse RAW264.7 cells assessed as inhibition of LPS-induced p38 phosphorylation at 30 uM preincubated for 30 mins followed by LPS stimulation by Western blotting analysis. It counts as cell-based.
For assay [3], the target named is T1, Inhibitor of nuclear factor kappa-B kinase subunit alpha (Mus musculus) (UniProt Q60680).
T1 sequence (whole entry): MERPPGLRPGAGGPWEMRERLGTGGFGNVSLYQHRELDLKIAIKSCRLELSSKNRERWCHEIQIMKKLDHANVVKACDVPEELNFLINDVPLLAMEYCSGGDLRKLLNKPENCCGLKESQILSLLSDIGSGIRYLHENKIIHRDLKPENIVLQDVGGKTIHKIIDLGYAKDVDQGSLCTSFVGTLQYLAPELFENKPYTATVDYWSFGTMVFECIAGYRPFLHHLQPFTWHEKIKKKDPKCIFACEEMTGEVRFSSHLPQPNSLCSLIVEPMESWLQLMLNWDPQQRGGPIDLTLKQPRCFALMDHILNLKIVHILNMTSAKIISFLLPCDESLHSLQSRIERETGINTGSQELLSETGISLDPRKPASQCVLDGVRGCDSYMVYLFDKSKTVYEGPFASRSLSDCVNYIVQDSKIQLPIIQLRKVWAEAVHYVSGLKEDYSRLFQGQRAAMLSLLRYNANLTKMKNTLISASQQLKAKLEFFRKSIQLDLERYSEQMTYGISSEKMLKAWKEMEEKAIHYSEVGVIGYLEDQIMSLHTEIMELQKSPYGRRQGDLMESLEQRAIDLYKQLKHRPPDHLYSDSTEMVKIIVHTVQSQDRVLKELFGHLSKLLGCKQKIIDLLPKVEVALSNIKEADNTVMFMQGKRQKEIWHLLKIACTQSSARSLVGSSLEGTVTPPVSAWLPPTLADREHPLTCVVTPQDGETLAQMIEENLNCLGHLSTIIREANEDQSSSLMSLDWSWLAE
The experiment in a line: Inhibition of IKKalpha mediated NF-kappaB activation in mouse RAW264.7 cells assessed as reduction in LIGHT-induced processing of p100 to p52 by Western blotting analysis. It is filed as cell-based. A general note: In western blotting, separated proteins are transferred to a membrane and probed.

Assay [4] can be described thus: Inhibition of LPS-indued NF-kappaB activation in mouse RAW264.7 cells preincubated for 30 mins followed by LPS stimulation and measured after 10 hrs by luciferase assay. It is filed as cell-based.
The test system of assay [5] is RAW264.7. The experiment in a line: Inhibition of NF-kappaB activation in mouse RAW264.7 cells assessed as inhibition of LPS-induced IkappaBalpha phosphorylation at 30 uM preincubated for 30 mins followed by LPS stimulation by Western blotting analysis. It counts as cell-based.
The target in assay [6] is T1, Inhibitor of nuclear factor kappa-B kinase subunit alpha (Mus musculus). The experiment in a line: Inhibition of IKKalpha mediated NF-kappaB activation in mouse RAW264.7 cells assessed as TWEAK-induced degradation of TRAF2 by Western blotting analysis. It counts as cell-based.
Assay [7] relates to RAW264.7. Put plainly: Inhibition of NF-kappaB activation in mouse RAW264.7 cells assessed as inhibition of LPS-induced IKKalpha phosphorylation at 30 uM preincubated for 30 mins followed by LPS stimulation by Western blotting analysis. It is filed as cell-based.
The subject of assay [8] is RAW264.7. Put plainly: Antiinflammatory activity in mouse RAW264.7 cells assessed as inhibition of LPS-induced iNOS protein expression at 30 uM preincubated for 30 mins followed by LPS stimulation by Western blot analysis. It is filed as functional, cell-based.
The target in assay [9] is T1, Inhibitor of nuclear factor kappa-B kinase subunit alpha (Mus musculus). Put plainly: Inhibition of IKKalpha mediated NF-kappaB activation in mouse RAW264.7 cells assessed as reduction TWEAK-induced processing of p100 to p52 by Western blotting analysis. It counts as cell-based.
Assay [10] concerns RAW264.7. The experiment in a line: Inhibition of NF-kappaB activation in mouse RAW264.7 cells assessed as inhibition of LPS-induced relA phosphorylation at 30 uM preincubated for 30 mins followed by LPS stimulation by Western blotting analysis. It is filed as cell-based.
For assay [11], the system named is RAW264.7. Put plainly: Antiinflammatory activity in mouse RAW264.7 cells assessed as inhibition of LPS-induced IL-1beta mRNA expression at 30 uM preincubated for 30 mins followed by LPS stimulation by RT-PCR analysis. It is filed as functional, cell-based.
Assay [12] addresses T2, Inhibitor of nuclear factor kappa-B kinase subunit beta (Mus musculus) (UniProt O88351).
T2 sequence (whole entry): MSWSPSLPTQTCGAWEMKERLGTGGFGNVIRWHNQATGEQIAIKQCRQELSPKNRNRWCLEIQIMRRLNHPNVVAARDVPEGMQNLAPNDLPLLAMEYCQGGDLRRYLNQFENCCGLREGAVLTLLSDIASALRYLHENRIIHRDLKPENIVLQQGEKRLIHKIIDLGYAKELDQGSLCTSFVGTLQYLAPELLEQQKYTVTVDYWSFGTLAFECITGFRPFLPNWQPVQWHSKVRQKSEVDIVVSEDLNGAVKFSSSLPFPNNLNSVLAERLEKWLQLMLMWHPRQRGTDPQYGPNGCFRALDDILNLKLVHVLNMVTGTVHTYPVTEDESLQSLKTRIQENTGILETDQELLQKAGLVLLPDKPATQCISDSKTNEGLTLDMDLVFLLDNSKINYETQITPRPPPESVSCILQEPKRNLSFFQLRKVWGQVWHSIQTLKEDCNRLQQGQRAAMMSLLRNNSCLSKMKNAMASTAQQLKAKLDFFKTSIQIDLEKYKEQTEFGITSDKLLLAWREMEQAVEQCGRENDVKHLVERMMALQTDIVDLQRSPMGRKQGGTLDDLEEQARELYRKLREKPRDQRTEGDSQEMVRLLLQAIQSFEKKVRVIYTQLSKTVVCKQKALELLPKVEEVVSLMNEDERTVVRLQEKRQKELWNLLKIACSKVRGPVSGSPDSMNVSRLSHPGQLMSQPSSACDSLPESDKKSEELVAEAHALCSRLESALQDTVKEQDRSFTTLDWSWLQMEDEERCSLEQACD
Put plainly: Inhibition of IKKbeta mediated NF-kappaB activation in mouse RAW264.7 cells assessed as inhibition of TWEAK-induced p65 phosphorylation on serine 536 by Western blotting analysis. It counts as cell-based.

In assay [13] the test system is RAW264.7. The experiment in a line: Antiinflammatory activity in mouse RAW264.7 cells assessed as inhibition of LPS-induced iNOS mRNA expression at 30 uM preincubated for 30 mins followed by LPS stimulation by RT-PCR analysis. It counts as functional, cell-based.
Assay [14] relates to RAW264.7. The experiment in a line: Antiinflammatory activity in mouse RAW264.7 cells assessed as inhibition of LPS-induced COX-2 mRNA expression at 30 uM preincubated for 30 mins followed by LPS stimulation by RT-PCR analysis. It counts as functional, cell-based.
Assay [15] has as its system RAW264.7. Put plainly: Antiinflammatory activity in mouse RAW264.7 cells assessed as inhibition of LPS-induced COX-2 protein expression at 30 uM preincubated for 30 mins followed by LPS stimulation by Western blot analysis. It is filed as functional, cell-based.
In assay [16] the test system is RAW264.7. The experiment in a line: Inhibition of MAPK in mouse RAW264.7 cells assessed as inhibition of LPS-induced JNK phosphorylation at 30 uM preincubated for 30 mins followed by LPS stimulation by Western blotting analysis. It is filed as cell-based.
In assay [17] the test system is HEK293. Put plainly: Inhibition of IKK phosphorylation in HEK293 cells transfected with IKKbeta by Western blotting analysis. It is filed as cell-based. To be noted: Homo sapiens.
For assay [18], the system named is RAW264.7. Put plainly: Antiinflammatory activity in mouse RAW264.7 cells assessed as inhibition of LPS-induced TNFalpha mRNA expression at 30 uM preincubated for 30 mins followed by LPS stimulation by RT-PCR analysis. It counts as functional, cell-based.
The subject of assay [19] is RAW264.7. Put plainly: Antiinflammatory activity in mouse RAW264.7 cells assessed as inhibition of LPS-induced IL6 mRNA expression at 30 uM preincubated for 30 mins followed by LPS stimulation by RT-PCR analysis. It counts as functional, cell-based.
Assay [20] has as its system RAW264.7. Put plainly: Inhibition of MAPK in mouse RAW264.7 cells assessed as inhibition of LPS-induced ERK phosphorylation at 30 uM preincubated for 30 mins followed by LPS stimulation by Western blotting analysis. It is filed as cell-based.
Assay [21] relates to RAW264.7. Put plainly: Antiinflammatory activity in mouse RAW264.7 cells assessed as inhibition of LPS-induced IL-1beta protein expression at 30 uM preincubated for 30 mins followed by LPS stimulation by Western blot analysis. It counts as functional, cell-based.
In assay [22] the test system is RAW264.7. The experiment in a line: Inhibition of NF-kappaB activation in mouse RAW264.7 cells assessed as inhibition of LPS-induced IKKbeta phosphorylation at 30 uM preincubated for 30 mins followed by LPS stimulation by Western blotting analysis. It counts as cell-based.
Assay [23] deals with T1, Inhibitor of nuclear factor kappa-B kinase subunit alpha (Mus musculus). Put plainly: Inhibition of IKKalpha mediated NF-kappaB activation in mouse RAW264.7 cells assessed as TWEAK-induced degradation of TRAF3 by Western blotting analysis. It counts as cell-based.

Active and inactive are the calls of the source. No cut-off for these calls is given here.

The IC50 is the concentration needed to halve the response being measured. In the case of `CCCCC/C=C\C=C\C(=O)NCCc1ccccc1`, the IC50 in assay [1] turned out to be 13.3 µM; in [4], 21.6 µM. Besides, the inhibition entry in [2], in assay [3], in [6], in assay [9], in assay [16] and in [20] was “inactive” each time. The inhibition entry in [23] is “inactive”. Further, the inhibition result in [5], in assay [7], in [10], in assay [12], in assay [17] and in assay [22] was “Active” each time. Further, the result in assay [8], in assay [11], in [13], in assay [14], in [15] and in assay [18] was Active. Further, the outcome in assay [19] and in [21] was Active.
